How the values were obtained:
Assay in all cases: relative viability (nuclei count vs DMSO), 5 days (fraction); higher = more cells survive
201T = tested on: 201T
Method in brief: (§1)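 The day after seeding in 1536-well plates, lung cancer cell lines were treated by pin tool with a single drug, or with a fixed anchor-drug dose together with five library-drug doses (not always all listed) in √10 steps. After 5 days, a combined fix-and-stain solution (final 0.05% Triton X-100, 1% formaldehyde, 1 ug/ml Hoechst) was added. Nuclei counted on 4× images gave relative viability as treated counts over vehicle counts, reported as the median of duplicate plates.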

A-427 = tested on: A-427
Method in brief: as §1

COR-L23 = tested on: COR-L23
Method in brief: as §1

HARA = tested on: HARA
Method in brief: as §1

HCC-78 = tested on: HCC-78
Method in brief: as §1

LCLC-103H = tested on: LCLC-103H
Method in brief: as §1

LCLC-97TM1 = tested on: LCLC-97TM1
Method in brief: as §1

LK-2 = tested on: LK-2
Method in brief: as §1

LOU-NH91 = tested on: LOU-NH91
Method in brief: as §1

LXF-289 = tested on: LXF-289
Method in brief: as §1

NCI-H1650 = tested on: NCI-H1650
Method in brief: as §1

NCI-H1651 = tested on: NCI-H1651
Method in brief: as §1

NCI-H1793 = tested on: NCI-H1793
Method in brief: as §1

NCI-H2347 = tested on: NCI-H2347
Method in brief: as §1

NCI-H23 = tested on: NCI-H23
Method in brief: as §1

NCI-H2405 = tested on: NCI-H2405
Method in brief: as §1

NCI-H520 = tested on: NCI-H520
Method in brief: as §1

NCI-H522 = tested on: NCI-H522
Method in brief: as §1

NCI-H647 = tested on: NCI-H647
Method in brief: as §1

NCI-H838 = tested on: NCI-H838
Method in brief: as §1

PC-3 [JPC-3] = tested on: PC-3 [JPC-3]
Method in brief: as §1

RERF-LC-KJ = tested on: RERF-LC-KJ
Method in brief: as §1

UMC-11 = tested on: UMC-11
Method in brief: as §1

Q: What does the source list for `CCNC(=O)c1noc(-c2cc(C(C)C)c(O)cc2O)c1-c1ccc(CN2CCOCC2)cc1` [Luminespib] + Nc1nc2[nH]cc(CCc3ccc(C(=O)N[C@@H](CCC(=O)O)C(=O)O)cc3)c2c(=O)[nH]1 [Pemetrexed] (partner 0.2 µM)?
A: relative viability (201T; first compound 0.002 µM): 0.333; relative viability (201T; first compound 0.006325 µM): 0.311; relative viability (201T; first compound 0.02 µM): 0.346; relative viability (201T; first compound 0.06325 µM): 0.359; relative viability (201T; first compound 0.2 µM): 0.206; relative viability (A-427; first compound 0.002 µM): 0.958; relative viability (A-427; first compound 0.006325 µM): 0.25; relative viability (A-427; first compound 0.02 µM): 0.812; relative viability (A-427; first compound 0.06325 µM): 0.495; relative viability (A-427; first compound 0.2 µM): 0.256; relative viability (COR-L23; first compound 0.002 µM): 0.19; relative viability (COR-L23; first compound 0.006325 µM): 0.187; relative viability (COR-L23; first compound 0.02 µM): 0.215; relative viability (COR-L23; first compound 0.06325 µM): 0.196; relative viability (COR-L23; first compound 0.2 µM): 0.101; relative viability (HARA; first compound 0.002 µM): 0.253; relative viability (HARA; first compound 0.006325 µM): 0.24; relative viability (HARA; first compound 0.02 µM): 0.273; relative viability (HARA; first compound 0.06325 µM): 0.172; relative viability (HARA; first compound 0.2 µM): 0.135; relative viability (HCC-78; first compound 0.002 µM): 0.885; relative viability (HCC-78; first compound 0.006325 µM): 0.864; relative viability (HCC-78; first compound 0.02 µM): 0.97; relative viability (HCC-78; first compound 0.06325 µM): 0.87; relative viability (HCC-78; first compound 0.2 µM): 0.858; relative viability (LCLC-103H; first compound 0.002 µM): 0.441; relative viability (LCLC-103H; first compound 0.006325 µM): 0.445; relative viability (LCLC-103H; first compound 0.02 µM): 0.535; relative viability (LCLC-103H; first compound 0.06325 µM): 0.486; relative viability (LCLC-103H; first compound 0.2 µM): 0.472; relative viability (LCLC-97TM1; first compound 0.002 µM): 0.189; relative viability (LCLC-97TM1; first compound 0.006325 µM): 0.164; relative viability (LCLC-97TM1; first compound 0.06325 µM): 0.0959; relative viability (LCLC-97TM1; first compound 0.2 µM): 0.0922; relative viability (LK-2; first compound 0.002 µM): 0.299; relative viability (LK-2; first compound 0.006325 µM): 0.159; relative viability (LK-2; first compound 0.02 µM): 0.221; relative viability (LK-2; first compound 0.06325 µM): 0.0902; relative viability (LK-2; first compound 0.2 µM): 0.0524; relative viability (LOU-NH91; first compound 0.002 µM): 0.426; relative viability (LOU-NH91; first compound 0.006325 µM): 0.36; relative viability (LOU-NH91; first compound 0.02 µM): 0.539; relative viability (LOU-NH91; first compound 0.06325 µM): 0.339; relative viability (LOU-NH91; first compound 0.2 µM): 0.324; relative viability (LXF-289; first compound 0.002 µM): 0.91; relative viability (LXF-289; first compound 0.006325 µM): 0.915; relative viability (LXF-289; first compound 0.02 µM): 1.09; relative viability (LXF-289; first compound 0.06325 µM): 0.333; relative viability (LXF-289; first compound 0.2 µM): 0.136; relative viability (NCI-H1650; first compound 0.002 µM): 0.404; relative viability (NCI-H1650; first compound 0.006325 µM): 0.368; relative viability (NCI-H1650; first compound 0.02 µM): 0.426; relative viability (NCI-H1650; first compound 0.06325 µM): 0.152; relative viability (NCI-H1650; first compound 0.2 µM): 0.137; relative viability (NCI-H1651; first compound 0.002 µM): 0.555; relative viability (NCI-H1651; first compound 0.006325 µM): 0.536; relative viability (NCI-H1651; first compound 0.02 µM): 0.474; relative viability (NCI-H1651; first compound 0.06325 µM): 0.646; relative viability (NCI-H1651; first compound 0.2 µM): 0.443; relative viability (NCI-H1793; first compound 0.002 µM): 0.859; relative viability (NCI-H1793; first compound 0.006325 µM): 0.741; relative viability (NCI-H1793; first compound 0.02 µM): 0.294; relative viability (NCI-H1793; first compound 0.06325 µM): 0.122; relative viability (NCI-H1793; first compound 0.2 µM): 0.119; relative viability (NCI-H2347; first compound 0.002 µM): 0.402; relative viability (NCI-H2347; first compound 0.006325 µM): 0.404; relative viability (NCI-H2347; first compound 0.02 µM): 0.426; relative viability (NCI-H2347; first compound 0.06325 µM): 0.42; relative viability (NCI-H2347; first compound 0.2 µM): 0.317; relative viability (NCI-H23; first compound 0.002 µM): 0.743; relative viability (NCI-H23; first compound 0.006325 µM): 0.655; relative viability (NCI-H23; first compound 0.02 µM): 0.391; relative viability (NCI-H23; first compound 0.06325 µM): 0.139; relative viability (NCI-H23; first compound 0.2 µM): 0.14; relative viability (NCI-H2405; first compound 0.002 µM): 1.08; relative viability (NCI-H2405; first compound 0.02 µM): 0.915; relative viability (NCI-H2405; first compound 0.06325 µM): 0.183; relative viability (NCI-H2405; first compound 0.2 µM): 0.179; relative viability (NCI-H520; first compound 0.002 µM): 0.691; relative viability (NCI-H520; first compound 0.006325 µM): 0.699; relative viability (NCI-H520; first compound 0.02 µM): 0.792; relative viability (NCI-H520; first compound 0.06325 µM): 0.135; relative viability (NCI-H520; first compound 0.2 µM): 0.13; relative viability (NCI-H522; first compound 0.002 µM): 1.01; relative viability (NCI-H522; first compound 0.006325 µM): 0.974; relative viability (NCI-H522; first compound 0.02 µM): 0.855; relative viability (NCI-H522; first compound 0.06325 µM): 0.675; relative viability (NCI-H522; first compound 0.2 µM): 0.353; relative viability (NCI-H647; first compound 0.002 µM): 0.202; relative viability (NCI-H647; first compound 0.006325 µM): 0.189; relative viability (NCI-H647; first compound 0.02 µM): 0.193; relative viability (NCI-H647; first compound 0.06325 µM): 0.106; relative viability (NCI-H647; first compound 0.2 µM): 0.0832; relative viability (NCI-H838; first compound 0.002 µM): 0.265; relative viability (NCI-H838; first compound 0.006325 µM): 0.256; relative viability (NCI-H838; first compound 0.02 µM): 0.284; relative viability (NCI-H838; first compound 0.06325 µM): 0.141; relative viability (NCI-H838; first compound 0.2 µM): 0.177; relative viability (PC-3 [JPC-3]; first compound 0.002 µM): 0.706; relative viability (PC-3 [JPC-3]; first compound 0.006325 µM): 0.342; relative viability (PC-3 [JPC-3]; first compound 0.02 µM): 0.681; relative viability (PC-3 [JPC-3]; first compound 0.06325 µM): 0.357; relative viability (PC-3 [JPC-3]; first compound 0.2 µM): 0.272; relative viability (RERF-LC-KJ; first compound 0.002 µM): 0.474; relative viability (RERF-LC-KJ; first compound 0.006325 µM): 0.449; relative viability (RERF-LC-KJ; first compound 0.02 µM): 0.462; relative viability (RERF-LC-KJ; first compound 0.06325 µM): 0.287; relative viability (RERF-LC-KJ; first compound 0.2 µM): 0.219; relative viability (UMC-11; first compound 0.002 µM): 0.737; relative viability (UMC-11; first compound 0.006325 µM): 0.843; relative viability (UMC-11; first compound 0.02 µM): 0.762; relative viability (UMC-11; first compound 0.06325 µM): 0.322; relative viability (UMC-11; first compound 0.2 µM): 0.161

— the supplement of paper PMC10307832
